The values that follow come from ChEMBL document CHEMBL5038606 (J Med Chem, 2022).

Data set [1] is described as follows: Fraction unbound in human plasma. In kind it is ADME, cell-free.
Data set [2] can be described thus: Aqueous solubility of the compound at pH 6.5. The data set is classed as physicochemical. The following applies: aqueous medium.
Data set [3] in a line: Aqueous solubility of the compound at pH 1.0. The data set is classed as physicochemical. The conditions noted are these: aqueous medium.
The target in another data set is Coagulation factor XI (Homo sapiens, UniProt P03951). The experiment in a line: Binding affinity to human coagulation factor 11a using L-Pyroglutamyl-L-prolyl-L-arginine p-Nitroaniline as substrate assessed as inhibition constant measured upto 120 mins by spectrophotometric analysis.
Sequence of Coagulation factor XI (P03951 19-387 limits assumed): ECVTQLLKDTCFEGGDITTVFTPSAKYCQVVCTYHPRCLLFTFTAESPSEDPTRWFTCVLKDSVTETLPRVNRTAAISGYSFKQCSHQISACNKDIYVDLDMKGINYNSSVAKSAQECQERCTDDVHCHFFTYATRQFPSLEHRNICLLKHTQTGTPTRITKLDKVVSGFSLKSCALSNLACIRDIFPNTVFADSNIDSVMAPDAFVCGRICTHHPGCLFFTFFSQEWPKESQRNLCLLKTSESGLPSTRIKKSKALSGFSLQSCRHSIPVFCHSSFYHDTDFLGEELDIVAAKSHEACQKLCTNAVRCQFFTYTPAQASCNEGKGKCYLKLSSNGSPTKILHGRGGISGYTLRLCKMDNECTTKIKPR
Sequence of Coagulation factor XI (P03951 388-625 limits assumed): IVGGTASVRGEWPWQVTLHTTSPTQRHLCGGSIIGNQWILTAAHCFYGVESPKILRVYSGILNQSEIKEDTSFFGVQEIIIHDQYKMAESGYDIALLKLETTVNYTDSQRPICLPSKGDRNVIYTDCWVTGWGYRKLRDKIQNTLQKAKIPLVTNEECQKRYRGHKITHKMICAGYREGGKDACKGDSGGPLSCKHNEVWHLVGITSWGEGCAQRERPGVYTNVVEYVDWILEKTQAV
The test system of a further data set is Plasma. The experiment in a line: Anticoagulant activity in human plasma assessed as activated partial thromboplastin time. The data set is classed as functional.
Data set [4] in a line: Metabolic stability in human liver microsomes assessed as half life. The data set is classed as ADME, Microsome. In general terms: Microsomes from liver hold many membrane-bound enzymes, among them those of drug oxidation.
Data set [5] is described as follows: Metabolic stability in Sprague-Dawley rat liver microsomes assessed as half life. In kind it is ADME, Microsome. Also on record: dose or concentration left out as unconfirmed.
The nature of data set [6]: Protein binding in Sprague-Dawley rat plasma assessed as bound fraction. Further details: dose or concentration left out as unconfirmed. In kind it is ADME, cell-free.
Data set [7] in a line: Clearance in Sprague-Dawley rat at 1.06 mg/kg, po or 0.53 mg/kg, iv. In kind it is ADME, organism-based. The conditions noted are these: in vivo.
Data set [8] can be described thus: Half life in Sprague-Dawley rat at 1.06 mg/kg, po or 0.53 mg/kg, iv. In kind it is ADME, organism-based. The conditions noted are these: in vivo.
Data set [9] in a line: Volume of distribution at steady state in Sprague-Dawley rat at 1.06 mg/kg, po or 0.53 mg/kg, iv. In kind it is ADME, organism-based. The following applies: in vivo, read-out: Vdss.
The nature of data set [10]: AUC in Sprague-Dawley rat at 1.06 mg/kg, po. The data set is classed as ADME, organism-based. Also on record: dose 1.06 mg/kg. The conditions noted are these: in vivo.
A short description of data set [11]: Oral bioavailability in Sprague-Dawley rat at 1.06 mg/kg. The conditions noted are these: in vivo. In kind it is ADME, organism-based.

In brackets after ≈: the same amount, converted by molar mass.

Regarding `C[C@@H]1CCC[C@H](N2CCC(c3c(F)ccc(Cl)c3F)=CC2=O)c2cc(ccn2)-c2c(cnn2C)NC1=O`, the fraction unbound (commonly free concentration divided by total concentration) in data set [1] was determined as 0.007. In addition, the solubility (usually the dissolved amount per volume that the medium holds) turned out to be 0.15 µg/mL (≈ 0.285 µM) in [2] and 3 µg/mL (≈ 5.7 µM) in data set [3].

In the case of `C[C@@H]1CCC[C@H](N2CCC(c3cc(Cl)ccc3-n3cc(Cl)nn3)=CC2=O)c2cc(ccn2)-c2c(cnn2C(F)F)NC1=O`, the Ki – broadly, the dissociation constant of the complex between target and ligand, obtained from inhibition or displacement – on Coagulation factor XI stood at 0.07 nM. Besides, in the data set on Plasma, the EC1.5 was 0.39 µM. Further, the half-life (in general, the time needed for the level to fall by half in the phase considered) is > 2 h in data set [4], > 2 h in data set [5] and 1.2 h in [8]. Moreover, in data set [6], the fraction unbound is 0.06. The same molecule yielded a clearance in data set [7] of 17 mL/min/kg. The Vd in [9] was 1.4 L/kg. Besides, the exposure (AUC) (in general, the area under the concentration-time curve, a measure of exposure) in data set [10] was 0.3 µM·h. Besides, the bioavailability – broadly, the share of a dose that reaches the circulation, judged against a reference dose that is usually intravenous – in [11] came out at 18%.

In the case of `C[C@@H]1CCC[C@H](N2CCC(c3cc(Cl)ccc3-n3cccn3)=CC2=O)c2cc(ccn2)-c2c(cnn2C)NC1=O`, the inhibition constant Ki on Coagulation factor XI was 11 nM. Moreover, the EC1.5 in the data set with Plasma worked out at 8.9 µM.

Regarding `C[C@@H]1CCC[C@H](N2CCC(c3cc(Cl)ccc3-n3ccnc3)=CC2=O)c2cc(ccn2)-c2c(cnn2C)NC1=O`, the Ki at Coagulation factor XI worked out at 2.7 nM. Moreover, in the data set on Plasma, the EC1.5 was 0.6 µM.

In the case of `CCn1ncc2c1-c1ccnc(c1)[C@@H](N1CCC(c3cc(Cl)ccc3-n3ccnn3)=CC1=O)CCC[C@@H](C)C(=O)N2`, the Ki on Coagulation factor XI came to 1.3 nM. For the same molecule, the EC1.5 in the data set on Plasma was determined as 0.48 µM. For the same molecule, in data set [4], the half-life is 0.167 h.

Regarding `C[C@@H]1CCC[C@H](N2CCC(c3c(F)ccc(Cl)c3F)=CC2=O)c2cc(ccn2)-c2cn[nH]c2NC1=O`, on Coagulation factor XI, the Ki was determined as 330 nM.

As to `C[C@@H]1CCC[C@H](N2CCC(c3cc(Cl)ccc3-n3ccnn3)=CC2=O)c2cc(ccn2)-c2c(cnn2C2CC2)NC1=O`, on Coagulation factor XI, the inhibitory constant (Ki) was 1.1 nM. Also, in the data set with Plasma, the EC1.5 amounted to 0.49 µM. Besides, the half-life in [4] worked out at 0.0833 h.

Regarding `C[C@@H]1CCC[C@H](N2CCC(c3cc(Cl)ccc3-n3ccnn3)=CC2=O)c2cc(ccn2)-c2c(cnn2C)NC1=O`, the EC1.5 in the data set on Plasma worked out at 0.36 µM. Also, the half-life in [4] was found to be 1.13 h.
